Assay results as given in doi:10.1101/2025.11.04.686469, “Discovery of Host-Directed Small Molecules with Broad Anti-Leishmanial Efficacy” (bioRxiv, 2025).

Key:
THP-1 macrophages = assay: Effect of compounds on host cell viability (MTT); format: cell-based; conditions: read-out: 24h LC50; THP1 macrophages, 24-hour incubation, MTT assay (Supplemental Table 2)
Protocol: The cells were cultured at 37C, 5% CO2 in RPMI medium (ATCC) supplemented with 10% FBS, 1% Penicillin/Streptomycin and 0.05 mM of β-mercaptoethanol. Cells were used in experiments up to passage 10.
Effect of the compounds on THP-1 cell viability measured using thiazolyl blue tetrazolium bromide which measures cell metabolic activity (MTT). THP-1 cells were seeded in a 96 well plate (25,000 cells/well) overnight then differentiated with 150 nM phorbol 12-myristate 13-acetate (PMA) over 72 hours. Macrophages were then treated with compounds resuspended in RPMI media (1- 50 μM) for 24 hours. Media was replaced with thiazolyl blue tetrazolium bromide solubilized in RPMI media (0.5 mg/mL) and incubated at 37°C for 2 hours. The reduced formazan crystals were solubilized with isopropyl alcohol and the absorbance of the resulting solution was measured at 560 nm with a background subtraction at 670 nm. […] This process was repeated with a 72-hr incubation and extended concentration range (1 - 300 μM) for select compounds.

[1] = system: intracellular L. donovani amastigotes; assay: Luminescent-based evaluation of intracellular anti-leishmanial activity in THP-1 macrophages; format: cell-based, Leishmania donovani; conditions: intracellular Leishmania donovani in THP1 macrophages, luminescence assay (Supplemental Table 2); read-out: Lum IC50
Protocol: Luminescent strains, L. donovani LV82 expressing firefly luciferase (a kind gift from Dr. Abhay Satoskar, Ohio State University) and L. mexicana (NR-51210, ATCC) expressing renilla luciferase were used to evaluate the effect of the compounds in intracellular and extracellular conditions. Wild-type L. donovani LV82 (ATCC) were used for Giemsa staining based experiments. All parasites were cultured at 25°C and 5% CO2 in M199 media (Corning) supplemented with 10% FBS, 1% penicillin/streptomycin, and hemin (0.01 mg/mL), and used in experiments up to passage 15.
THP-1 cells were seeded in a 96 well plate (25,000 cells/well) overnight then differentiated with 150 nM phorbol 12-myristate 13-acetate (PMA) over 72 hours (Supplemental Figure 1). […] Briefly, promastigotes of a known cell density were resuspended in RPMI media (with 10% FBS, 1% P/S and 0.05 mM β-mercaptoethanol) and incubated with adhered THP-1 cells over 18 hours. After infection, cells were washed three times with fresh media to remove extracellular promastigotes.
Infected macrophages were then treated with compounds solubilized in DMSO ranging from 0.1-10 μM in concentrations. After 72 hours of treatment, the viability of the amastigotes within macrophages was determined using Promega firefly luminescence assay (Cat E1500) or Pierce Renilla luciferase assay (Cat 16166) for L. donovani and L. mexicana strains, respectively. Briefly, media was removed, and cells were lysed with the assay lysis buffer. The luciferase substrate was then incubated with the lysed cells for 10 min at room temperature and luminescence of live Leishmania was measured in a white opaque 96 well plate using a Biotek plate reader.

Row | SMILES | CC50 (THP-1 macrophages) | IC50 [1]
1 | NCC(=O)NC1CCN(c2ccc(-n3nc(C(F)(F)F)cc3-c3ccc(-c4ccc(C(F)(F)F)cc4)cc3)cc2)C1 (stereo not drawn) [Compound 119] | 37.2 µM | > 10 µM
2 | FC(F)(F)c1cn(-c2ccc(N3CCC(NCc4ccccc4)C3)cc2)c(-c2ccc(-c3ccccc3)cc2)n1 (stereo not drawn) [Compound 84] | > 50 µM | 6.5 µM
3 | FC(F)(F)c1cc(-c2ccc(-c3ccc(S(F)(F)(F)(F)F)cc3)cc2)n(-c2ccc(Br)cc2)n1 [Compound 105] | > 50 µM | > 10 µM
4 | Nc1ccc(-n2nc(C(F)(F)F)cc2-c2ccc(-c3ccc(S(F)(F)(F)(F)F)cc3)cc2)cc1 [Compound 104] | > 50 µM | > 10 µM
5 | CNS(=O)(=O)Cc1ccc(-n2nc(C(F)(F)F)cc2-c2ccc(-c3ccc(C(F)(F)F)cc3)cc2)cc1 [Compound 191] | 12 µM | > 10 µM
6 | O=S(=O)(c1ccc(-n2cc(C(F)(F)F)nc2-c2ccc(-c3ccc(C(F)(F)F)cc3)cc2)cc1)C(F)(F)F [Compound 244] | > 50 µM | > 10 µM
7 | O=[N+]([O-])c1ccc(-n2cc(C(F)(F)F)nc2-c2ccc(-c3ccc(C(F)(F)F)cc3)cc2)cc1 [Compound 154] | 25.5 µM | 2.9 µM
8 | Fc1cccc(CNC2CCN(c3ccc(-n4nc(C(F)(F)F)cc4C4CCCCC4)cc3)CC2)c1 [Compound 337] | 32.1 µM | 3.5 µM
9 | N#Cc1ccc(CN2CCC(Nc3ccc(-n4nc(C(F)(F)F)cc4C4CCCCC4)cc3)CC2)cc1 [Compound 323] | 28.3 µM | 8.9 µM
10 | N#Cc1ccc(-n2cc(C(F)(F)F)nc2-c2ccc(-c3ccc(C(F)(F)F)cc3)cc2)cc1 [Compound 177] | > 50 µM | > 10 µM
11 | NCCCNC1CCN(c2ccc(-n3nc(C(F)(F)F)cc3C3CCCCC3)cc2)CC1 [Compound 420] | 7 µM | 1 µM
12 | FC(F)(F)c1cc(C2CCCCC2)n(-c2ccc(N3CCC(NCc4ccccc4)CC3)cc2)n1 [Compound 336] | 15.9 µM | 2.4 µM
13 | CCCCCC(=O)NC1CCN(c2ccc(-n3nc(C(F)(F)F)cc3-c3ccc(-c4ccc(C(F)(F)F)cc4)cc3)cc2)C1 (stereo not drawn) [Compound 63] | > 50 µM | > 10 µM
14 | O=C1CN(c2ccc(-n3cc(C(F)(F)F)nc3-c3ccc(C(F)(F)F)cc3)cc2)CCN1 [Compound 332] | 31.2 µM | 8 µM
15 | FC(F)(F)c1ccc(-c2ccc(-c3cc(C(F)(F)F)nn3-c3ccc(NC4CNC4)cc3)cc2)cc1 [Compound 3] | 11 µM | 1.8 µM
16 | CN(C)c1ccc(-c2cc(C(F)(F)F)nn2-c2ccc(Br)cc2)cc1 [Compound 214] | > 50 µM | > 10 µM
17 | FC(F)(F)c1cc(-c2ccncc2)n(-c2ccc(Br)cc2)n1 [Compound 213] | > 50 µM | > 10 µM
18 | NC1CCN(c2ccc(-n3nc(C(F)(F)F)cc3C3CCCCC3)cc2)CC1 [Compound 324] | 27.5 µM | 1.9 µM
19 | CC(C)C#Cc1ccc(-c2cc(C(F)(F)F)nn2-c2ccc(N3CCC(NCc4ccccc4)C3)cc2)cc1 (stereo not drawn) [Compound 99] | 29.2 µM | > 10 µM
20 | FC(F)(F)c1ccc(-c2ccc(-c3cc(C(F)(F)F)nn3-c3ccc(N4CC(NC5CCCC5)C4)cc3)cc2)cc1 [Compound 55] | 29.7 µM | 8.5 µM
21 | FC(F)(F)c1cc(C2CCCCC2)n(-c2ccc(NC3CCN(Cc4ccccc4)CC3)cc2)n1 [Compound 321] | 23.9 µM | 5.1 µM
22 | FC(F)(F)c1ccc(-c2ccc(-c3cc(C(F)(F)F)nn3-c3ccc(NC4CC(Cc5ccc(Cl)cc5)C4)cc3)cc2)cc1 (stereo not drawn) [Compound 66] | > 50 µM | > 10 µM
23 | NC1CCN(c2ccc(-n3nc(C4CCCCC4)cc3C(F)(F)F)cc2)C1 (stereo not drawn) [Compound 232] | 14.4 µM | 2.6 µM
24 | Nc1ccc(-n2cc(C(F)(F)F)nc2-c2ccc(-c3ccc(C(F)(F)F)cc3)cc2)cc1 [Compound 76] |  | > 10 µM
25 | CCCCNc1ccc(-n2nc(C(F)(F)F)cc2-c2ccc(-c3ccc(C(F)(F)F)cc3)cc2)cc1 [Compound 57] | > 50 µM | 

Row | SMILES | CC50 (THP-1 macrophages) | IC50 [1]
26 | Fc1cccc(CN2CCC(Oc3ccc(-n4nc(C(F)(F)F)cc4C4CCCCC4)cc3)CC2)c1 [Compound 372] | > 50 µM | 
27 | FC(F)(F)c1cc(-c2ccc(-c3ccc(S(F)(F)(F)(F)F)cc3)cc2)n(-c2ccc(N3CCNCC3)cc2)n1 [Compound 46] | 10 µM | 
28 | CC(C)(C)OC(=O)N1CCC(Nc2ccc(-n3nc(C(F)(F)F)cc3C(F)(F)F)cc2)C1 (stereo not drawn) [Compound 283] | > 50 µM | 
29 | CC(=O)NCCCOc1ccc(CN2CCC(Oc3ccc(-n4nc(C(F)(F)F)cc4C4CCCCC4)cc3)CC2)cc1 [Compound 430] | 16.5 µM | 
30 | NCC(=O)Nc1ccc(-n2ccnc2-c2ccc(C(F)(F)F)cc2)cc1 [Compound 406] | > 50 µM | 
31 | FC(F)(F)c1ccc(-c2ccc(-c3cc(C(F)(F)F)nn3-c3ccc(NC4CN(C(c5ccccc5)c5ccccc5)C4)cc3)cc2)cc1 [Compound 4] | > 50 µM | 
32 | N#Cc1ccc(-n2cc(C(F)(F)F)nc2-c2ccc(Br)cc2)c(F)c1 [Compound 291] | > 50 µM | 
33 | FC(F)(F)c1ccc(CNC2CCN(c3ccc(-n4nc(C(F)(F)F)cc4-c4ccc(-c5ccc(C(F)(F)F)cc5)cc4)cc3)C2)cc1 (stereo not drawn) [Compound 24] | > 50 µM | 
34 | CCOC(=O)CNc1ccc(-n2cc(C(F)(F)F)nc2-c2ccc(C(F)(F)F)cc2)cc1 [Compound 403] | > 50 µM | 
35 | CCc1cc(-c2ccc(-c3ccc(C(F)(F)F)cc3)cc2)n(-c2ccc(Br)cc2)n1 [Compound 280] | > 50 µM | 
36 | COc1ccc(-n2nc(C(F)(F)F)cc2-c2ccc(-c3ccc(C(F)(F)F)cc3)cc2)cc1 [Compound 26] | 5.8 µM | 
37 | FC(F)(F)c1ccc(-c2ccc(-c3cc(C(F)(F)F)nn3-c3ccc(NC4CCN(Cc5cccc(Cl)c5Cl)C4)cc3)cc2)cc1 (stereo not drawn) [Compound 52] | > 50 µM | 
38 | O=[N+]([O-])c1ccc(-n2nc(C(F)(F)F)cc2-c2ccc(Br)cc2)cc1 [Compound 37] | > 50 µM | 
39 | FC(F)(F)c1ccc(-c2ccc(-c3cc(C(F)(F)F)nn3-c3ccc(N4CCC(NCc5cccs5)C4)cc3)cc2)cc1 (stereo not drawn) [Compound 20] | > 50 µM | 
40 | FC(F)(F)c1ccc(-c2ccc(-c3cc(C(F)(F)F)nn3-c3ccc(N4CCC(NCc5ccc6ccccc6c5)C4)cc3)cc2)cc1 (stereo not drawn) [Compound 17] | > 50 µM | 
41 | CC(C)(C)OC(=O)N1CCC(Nc2ccc(-n3nc(C(F)(F)F)cc3-c3ccco3)cc2)C1 (stereo not drawn) [Compound 269] | > 50 µM | 
42 | Cc1ccccc1CNC1CN(c2ccc(-n3nc(C(F)(F)F)cc3-c3ccc(-c4ccc(C(F)(F)F)cc4)cc3)cc2)C1 [Compound 48] | > 50 µM | 
43 | O=C(CNCc1cccc(F)c1)Nc1ccc(-n2nc(C(F)(F)F)cc2C2CCCCC2)cc1 [Compound 352] | 29.3 µM | 
44 | O=[N+]([O-])c1ccc(-n2nc(C(F)(F)F)cc2-c2ccc(C#CC3CC3)cc2)cc1 [Compound 39] | > 50 µM | 
45 | Fc1cccc(COC2CCN(c3ccc(-n4nc(C(F)(F)F)cc4C4CCCCC4)cc3)C2)c1 (stereo not drawn) [Compound 415] | > 50 µM | 
46 | CC(C)(C)OC(=O)NCC(=O)Nc1ccc(-n2nc(C(F)(F)F)cc2C2CCCCC2)cc1 [Compound 340] | > 50 µM | 
47 | Cc1cc(C(F)(F)F)nn1-c1ccc(NC2CCNC2)cc1 (stereo not drawn) [Compound 313] | > 50 µM | 
48 | Nc1ccc(-n2nc(C(F)(F)F)cc2-c2ccc(Br)cc2)cc1 [Compound 40] | > 50 µM | 
49 | CCc1cc(C(F)(F)F)nn1-c1ccc(Br)cc1 [Compound 316] | > 50 µM | 
